Results as given in the supplement of paper PMC10307832.

Tests used:
Test in all cases: relative viability (nuclei count vs DMSO), 5 days (fraction); higher = more cells survive
Cediranib + Navitoclax = compound: COc1cc2c(Oc3ccc4[nH]c(C)cc4c3F)ncnc2cc1OCCCN1CCCC1 [Cediranib] + CC1(C)CCC(c2ccc(Cl)cc2)=C(CN2CCN(c3ccc(C(=O)NS(=O)(=O)c4ccc(N[C@H](CCN5CCOCC5)CSc5ccccc5)c(S(=O)(=O)C(F)(F)F)c4)cc3)CC2)C1 [Navitoclax] (partner 0.5 µM)
Summary of the method: (§1)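 A single step with final 0.05% Triton X-100, 1% formaldehyde and 1 ug/ml Hoechst fixed the cells and stained nuclei 5 days after treatment. Lung cancer cell lines in 1536-well plates had been treated by pin tool the day after seeding with one drug alone or a fixed anchor-drug dose plus five library-drug doses (not always all listed) in √10 steps, and nuclei were counted on 4× images. Relative viability is the ratio of nuclei in treated wells to nuclei in vehicle wells, taken as the median of duplicate plates.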

Decitabine + Olaparib = compound: Nc1ncn([C@H]2C[C@H](O)[C@@H](CO)O2)c(=O)n1 [Decitabine] + O=C(c1cc(Cc2n[nH]c(=O)c3ccccc23)ccc1F)N1CCN(C(=O)C2CC2)CC1 [Olaparib] (partner 8 µM)
Summary of the method: as §1

Halofuginone + OSI-027 = compound: O=C(C[C@H]1NCCC[C@@H]1O)Cn1cnc2cc(Br)c(Cl)cc2c1=O (racemic) [Halofuginone] + COc1cccc2cc(-c3nc([C@H]4CC[C@H](C(=O)O)CC4)n4ncnc(N)c34)[nH]c12 [OSI-027] (partner 0.5 µM)
Summary of the method: as §1

Cediranib + Linsitinib = compound: COc1cc2c(Oc3ccc4[nH]c(C)cc4c3F)ncnc2cc1OCCCN1CCCC1 [Cediranib] + C[C@]1(O)C[C@@H](c2nc(-c3ccc4ccc(-c5ccccc5)nc4c3)c3c(N)nccn32)C1 [Linsitinib] (partner 1 µM)
Summary of the method: as §1

Cell Line | relative viability (Cediranib + Navitoclax; first compound 0.04 µM) | relative viability (Cediranib + Navitoclax; first compound 0.4 µM) | relative viability (Cediranib + Navitoclax; first compound 1.265 µM) | relative viability (Cediranib + Navitoclax; first compound 4 µM) | relative viability (Decitabine + Olaparib; first compound 0.04 µM) | relative viability (Decitabine + Olaparib; first compound 0.1265 µM) | relative viability (Decitabine + Olaparib; first compound 0.4 µM) | relative viability (Decitabine + Olaparib; first compound 1.265 µM) | relative viability (Decitabine + Olaparib; first compound 4 µM) | relative viability (Halofuginone + OSI-027; first compound 0.001 µM) | relative viability (Halofuginone + OSI-027; first compound 0.003162 µM) | relative viability (Halofuginone + OSI-027; first compound 0.01 µM) | relative viability (Halofuginone + OSI-027; first compound 0.03162 µM) | relative viability (Halofuginone + OSI-027; first compound 0.1 µM) | relative viability (Cediranib + Linsitinib; first compound 0.04 µM) | relative viability (Cediranib + Linsitinib; first compound 0.4 µM) | relative viability (Cediranib + Linsitinib; first compound 1.265 µM) | relative viability (Cediranib + Linsitinib; first compound 4 µM) | relative viability (Cediranib + Navitoclax; first compound 0.1265 µM) | relative viability (Cediranib + Linsitinib; first compound 0.1265 µM)
NCI-H520 | 1.15 | 0.926 | 1.09 | 1.2 | 0.201 | 0.297 | 0.251 | 0.188 | 0.167 | 0.311 | 0.3 | 0.258 | 0.321 | 0.199 | 1.08 | 0.809 | 0.806 | 0.908 |  | 
NCI-H1993 | 1.05 | 0.981 | 0.733 | 1.09 | 0.647 | 0.614 | 0.625 | 0.44 | 0.473 | 0.56 | 0.592 | 0.564 | 0.47 | 0.523 | 0.774 | 0.701 | 0.648 | 0.818 | 0.935 | 0.751
NCI-H1437 | 1.14 | 1.06 | 1.07 | 1.13 | 0.435 | 0.416 | 0.381 | 0.268 | 0.246 | 0.905 | 0.933 | 0.871 | 0.847 | 0.717 | 1.09 | 0.951 | 1.04 | 1.01 | 1.17 | 0.987
LC-2-ad | 0.504 | 0.469 | 0.419 | 0.513 | 0.441 | 0.402 | 0.397 | 0.343 | 0.274 | 0.903 | 0.888 | 0.746 | 0.889 | 0.608 | 0.871 | 0.842 | 0.771 | 0.806 | 0.502 | 0.831
HARA | 1.16 | 1.15 | 1.14 | 1.18 | 0.379 | 0.248 | 0.28 | 0.147 | 0.168 | 0.68 | 0.631 | 0.536 | 0.566 | 0.399 | 0.916 | 0.96 | 0.955 | 0.975 | 1.03 | 1.14
NCI-H1975 | 1.18 | 0.956 | 1.19 | 1.21 | 0.292 | 0.266 | 0.232 | 0.193 | 0.174 | 0.751 | 0.744 | 0.67 | 0.473 | 0.348 | 1.1 | 1 | 0.955 | 0.928 | 1.13 | 1.16
NCI-H2085 | 1.19 | 1.13 | 1.09 | 1.26 | 0.46 | 0.42 | 0.425 | 0.324 | 0.344 | 0.886 | 0.832 | 0.755 | 0.721 | 0.523 | 1.01 | 0.898 | 0.872 | 0.926 | 1.04 | 0.941
NCI-H3122 | 1.05 | 1.05 | 0.998 | 1.02 | 0.34 | 0.307 | 0.225 | 0.201 | 0.206 | 0.894 | 1.05 | 0.867 | 0.943 | 0.384 | 1.01 | 0.986 | 1.02 | 1.03 | 1.03 | 1.07
NCI-H1651 | 1.04 | 0.899 | 1.02 | 1.18 | 0.136 | 0.163 | 0.12 | 0.144 | 0.118 | 0.825 | 0.701 | 0.655 | 0.665 | 0.382 | 0.888 | 0.991 | 0.95 | 1.04 | 1.01 | 1.11
NCI-H441 | 0.466 |  | 0.763 | 0.573 | 0.151 | 0.219 | 0.157 | 0.128 | 0.136 | 0.737 | 0.583 | 0.591 | 0.647 | 0.336 | 0.445 | 0.524 | 0.551 | 0.652 | 0.63 | 0.546
NCI-H2126 | 0.8 | 0.781 | 0.811 | 0.914 | 0.63 | 0.546 | 0.459 | 0.42 | 0.85 | 0.727 | 0.604 | 0.695 | 0.612 | 0.549 | 0.769 | 0.683 | 0.592 | 0.722 | 0.934 | 0.708
RERF-LC-KJ | 0.974 | 0.756 | 0.926 | 0.734 | 0.615 | 0.608 |  | 0.448 | 0.495 | 0.618 | 0.609 | 0.537 | 0.565 | 0.488 | 0.909 | 0.869 | 0.871 | 0.907 | 1.29 | 0.862
NCI-H1666 | 0.875 | 0.989 | 1.09 | 1.1 | 0.65 | 0.698 | 0.723 | 0.619 | 0.651 | 1.01 | 0.869 | 0.766 | 0.955 | 0.852 | 0.865 | 0.729 | 0.885 | 0.877 | 1 | 0.903
PC-14 | 0.989 | 1.02 | 0.905 | 1.24 | 0.114 | 0.0887 | 0.0551 | 0.0482 | 0.0711 | 0.828 | 0.962 | 0.704 | 0.471 | 0.0328 | 0.935 | 0.905 | 0.897 | 0.965 | 1.03 | 0.986
NCI-H1915 | 0.787 | 0.805 | 0.788 | 0.811 | 0.173 | 0.169 | 0.142 | 0.124 | 0.145 | 0.616 | 0.62 | 0.643 | 0.549 | 0.544 | 1.09 | 1.07 | 1.04 | 1.16 | 0.721 | 1.01
SK-MES-1 | 1.23 | 1.13 | 1.21 | 1.2 | 0.288 | 0.362 | 0.299 | 0.179 | 0.244 | 0.679 | 0.666 | 0.557 | 0.498 | 0.152 | 1.04 | 1.06 | 0.959 | 1.13 | 1.36 | 1.04
